Measurements from article PMC10994559 (PLOS Neglected Tropical Diseases, 2024).
Where “and” joins values, the source holds several entries; their conditions need not be identical. Equal values may be shown once. Entries after “also recorded” stand apart in the source; their conditions may differ.

Legend:
[1] = Body weight and tolerability during treatment in the mouse model; type: in vivo, Balb/c mice; settings: for Body weight during treatment course: PHT-39 13.75 mg/kg i.p. or s.c., AmB 8 mg/kg i.p., vs DMSO
Method: L. major metacyclic promastigotes were prepared from a five day stationary phase culture through Ficoll gradient centrifugation according to previous studies with minor changes: Briefly, a 20% and 10% Ficoll gradient were prepared in PBS and M199 media, respectively and placed in a 14 ml falcon tube. Then, 1x10^9 L. major promastigotes were loaded on top of gradient and centrifuged. Metacyclic parasites were collected between two layers. Four groups of mice (n = 6) were challenged by subcutaneous injection of 2x10^6 stationary phase metacyclic promastigotes (50 μl in PBS) into the left hind footpad. Two weeks after infectious challenge, animals were treated by i.p or intralesional (s.c) PHT-39 injection (13.75 mg/kg body weight), daily or every other day, respectively, for ten days. AmB (8 mg/kg body weight) was applied as positive control drug (i.p injection for ten days) and 5% DMSO in distilled water was applied as negative control (s.c injection for ten days) (Table 1).
Every four days after the challenge, body weight was monitored and footpad swelling changes were measured (Footpad swelling = (height + width)/2) with a metric caliper (Kroeplin, IP65, D-series, external measuring gauge).

[2] = tested on: T. brucei BSF proteome; test: Label-free LC-MS/MS proteomics after PHT-39 exposure; type: cell-based, Trypanosoma brucei
Method: 4 x 10^7 cells were harvested by centrifugation (1000*g) after 48 h from cultures in logarithmic growth phase and washed thrice with PBS. Samples were subjected to lysis, tryptic digest and reductive alkylation using standard procedures. LC-MS/MS was performed by the OMICS Proteomics Facility at Charles University Biocev on an UltiMate 3000 RSLCnano System (Thermo Fisher Scientific) coupled to a Orbitrap Fusion mass spectrometer (Thermo Fisher Scientific). Mass spectra were analyzed by label-free quantification using MaxQuant version 2.1.0.0 [30] searching the T. brucei brucei 927 annotated protein database (release 57) from TriTrypDB [31]. Minimum peptide length was set at seven amino acids and false discovery rates of 0.01 were calculated at the levels of peptides, proteins, and modification sites based on the number of hits against the reversed sequence database. When the identified peptide sequence set of one protein contained the peptide set of another protein, these two proteins were assigned to the same protein group. P-values were calculated, applying t-test–based statistics using Perseus. Proteomics data have been deposited to the ProteomeXchange Consortium via the PRIDE partner repository with the data set identifier PXD043204.

[3] = tested on: Plasmodium falciparum; design: method as in PMID 35749989; settings: cited from earlier work
[4] = tested on: L. major axenic amastigotes; test: L. major axenic amastigote viability, resazurin reduction; settings: Leishmania major; for viability at 2.5 µM / viability at 25 µM: 72 h; for viability at 2.5 µM: read-out: Residual viability, L.major amastigote (2.5 µM); for viability at 25 µM: read-out: Residual viability, L.major amastigote (25 µM); for EC50: read-out: EC50 L. major axenic amastigote
In short: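 Axenic L. major LV561 amastigotes were grown in Grace medium with 20% FCS, pH 5.4, at 33°C and seeded at 0.5x10^5 cells/well with compounds for 72 h. Resazurin was then added for 6 h and fluorescence read at ex 550/em 590 nm; hits were retested at 2.5 μM.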

[5] = tested on: T. brucei 2T1 RNAi lines; test: Dose response after targeted stem-loop RNAi knockdown; type: cell-based, Trypanosoma brucei
Method: Selected genes with the high reads were validated by individual RNAi targeting. Briefly, gene-specific RNAi fragments of 400–600 bp were amplified with PCR primers designed with RNAit tool (S1 Table) and cloned into pRPa^iSL to generate stem-loop, ‘hairpin’ dsRNA to induce RNAi knockdown. The AscI linearized plasmid was transfected into 2T1 cells and positive colonies were selected with hygromycin (2.5 μg/ml). Positive, puromycin sensitive clones were analysed by PHT-39 dose response analysis after 24 h tetracycline induction and compared to uninduced controls and parental lines.

[6] = tested on: Plasmodium berghei ANKA; design: method as in PMID 35749989; settings: cited from earlier work
[7] = 24 h tetracycline induction vs uninduced

For `CC[C@@H](C)[C@H](c1nc2ccccc2n1Cc1cn(-c2ccc(C(F)(F)F)cc2)nn1)N1C(=O)c2ccccc2C1=O` [PHT-39], the “Body weight during treatment course” value [1] was “did not affect the body weight”, the “Compound related toxicity in mice” value ([1]; intraperitoneal or subcutaneous injection for 10 and 5 days) was “did not expose any compound related toxicity” and the “Abundance change FAZ localized protein Tb927.1.4280” value ([2]; 3.9 μM (1× EC50), 48 h) was 0.62 fold. For the same compound, the “Abundance change Hsp104 homolog Tb927.2.5980” value ([2]; 3.9 μM (1× EC50), 48 h) was 1.4 fold, the “Abundance change PIP39 (Tb927.9.6090)” value ([2]; 3.9 μM (1× EC50), 48 h) was 1.6 fold and the “Abundance change axonemal protein SAXO (Tb927.8.6240)” value ([2]; 3.9 μM (1× EC50), 48 h) was 0.65 fold. The “PHT-39 ratio (protein abundance)” value ([2]; protein 2-oxoglutarate dehydrogenase E1 component, Tb927.11.1450) was 1.73, the “PHT-39 ratio (protein abundance)” value ([2]; protein 2-oxoglutarate dehydrogenase E1 component, Tb927.11.9980) was 1.93 and the “PHT-39 ratio (protein abundance)” value ([2]; protein ACS1, Tb927.7.6180) was “- ∞”. The “PHT-39 ratio (protein abundance)” value ([2]; protein Aconitase, Tb927.10.14000) was 1.39, the “PHT-39 ratio (protein abundance)” value ([2]; protein CIF1 (TOEFAZ1), Tb927.11.15800) was 0.46 and the “PHT-39 ratio (protein abundance)” value ([2]; protein CIF3, Tb927.10.13100) was “- ∞”. The “PHT-39 ratio (protein abundance)” value ([2]; protein CIF4, Tb927.10.8240) was 0.88, the “PHT-39 ratio (protein abundance)” value ([2]; protein F1 alpha, Tb927.7.7430, Tb927.7.7420) was 1.31 and the “PHT-39 ratio (protein abundance)” value ([2]; protein F1 beta, Tb927.3.1380) was 1.33. For the same compound, the “PHT-39 ratio (protein abundance)” value ([2]; protein F1 gamma, Tb927.10.180) was 1.23, the “PHT-39 ratio (protein abundance)” value ([2]; protein F1 p18, Tb927.5.1710) was 1.90 and the “PHT-39 ratio (protein abundance)” value ([2]; protein FPRC, Tb927.10.6360) was 0.72. For the same compound, the “PHT-39 ratio (protein abundance)” value ([2]; protein Fo 8, Tb927.4.3450) was “∞”, the “PHT-39 ratio (protein abundance)” value ([2]; protein Fo ATBTB1, Tb927.10.520) was 1.48 and the “PHT-39 ratio (protein abundance)” value ([2]; protein Fo ATBTB3, Tb927.11.6250) was 1.53. The “PHT-39 ratio (protein abundance)” value ([2]; protein Fo ATBTB4, Tb927.10.9830) was 1.36, the “PHT-39 ratio (protein abundance)” value ([2]; protein Fo ATBTB6, Tb927.11.1270) was 1.40 and the “PHT-39 ratio (protein abundance)” value ([2]; protein Fo ATBTB12, Tb927.5.3090) was 3.78. For the same compound, the “PHT-39 ratio (protein abundance)” value ([2]; protein Fo OSCP, Tb927.10.8030) was 2.93, the “PHT-39 ratio (protein abundance)” value ([2]; protein Fo d, Tb927.5.2930) was 1.35 and the “PHT-39 ratio (protein abundance)” value ([2]; protein Fo e, Tb927.11.600) was 1.09. The “PHT-39 ratio (protein abundance)” value ([2]; protein Fo f, Tb927.3.1690) was 1.36, the “PHT-39 ratio (protein abundance)” value ([2]; protein Fo i/j, Tb927.3.2880) was 1.66 and the “PHT-39 ratio (protein abundance)” value ([2]; protein Fo k, Tb927.7.840) was 3.17. For the same compound, the “PHT-39 ratio (protein abundance)” value ([2]; protein Glutamate dehydrogenase, Tb927.9.5900) was 1.53, the “PHT-39 ratio (protein abundance)” value ([2]; protein PIP39, Tb927.9.6090) was 1.62 and the “PHT-39 ratio (protein abundance)” value ([2]; protein PPDK, Tb927.11.6280) was “∞”. The “PHT-39 ratio (protein abundance)” value ([2]; protein Proline dehydrogenase, Tb927.7.210) was 1.66, the “PHT-39 ratio (protein abundance)” value ([2]; protein SAXO, Tb927.8.6240) was 0.65 and the “PHT-39 ratio (protein abundance)” value ([2]; protein Tb927.1.4280) was 0.63. The “Difference (LFQ intensity treated vs untreated)” value (“Difference” below) ([2]; protein Tb927.10.4770, phosphatidylinositol-4-phosphate 5-kinase, putative) was 2.042, the “Difference” value ([2]; protein Tb927.4.3450, Mitochondrial ATP synthase subunit, putative) was 5.909 and the “Difference” value ([2]; protein Tb927.6.980;Tb927.6.970;Tb927.6.960;Tb927.6.1020;Tb927.6.1010, cysteine peptidase, Cathepsin L-like) was 5.36. For the same compound, the “Difference” value ([2]; protein Tb927.7.2660, zinc finger protein family member, putative) was 3.448, the “Difference” value ([2]; protein Tb927.9.12700, phospholipase A1, putative) was 3.03 and the “PHT-39 ratio (protein abundance)” value ([2]; protein citrate synthase, Tb927.10.13430) was 1.66. The “PHT-39 ratio (protein abundance)” value ([2]; protein isocitrate dehydrogenase, Tb927.8.3690) was 1.46, the “PHT-39 ratio (protein abundance)” value ([2]; protein mitochondrial malate dehydrogenase, Tb927.10.2560) was 1.32 and the “PHT-39 ratio (protein abundance)” value ([2]; protein succinyl-CoA ligase beta-chain, Tb927.10.7410) was 1.79. For the same compound, the “PHT-39 ratio (protein abundance)” value ([2]; protein succinyl-CoA synthetase alpha subunit, Tb927.3.2230) was 1.72, the “Mitochondrial membrane potential, P. falciparum trophozoites” value ([3]; 3 h exposure at EC50 0.64 μM) was “collapse of the mitochondrial membrane potential” and the EC50 ([3]; read-out: EC50 Plasmodium falciparum intraerythrocyte stages) was 640 nM and 600 nM. For the same compound, the viability at 2.5 µM [4] was 62.1 ± 3.43%, the viability at 25 µM [4] was 2.6% and the EC50 [4] was 2600 ± 1800 nM. For the same compound, the “Sensitivity shift after RNAi of HSP104 homolog (ClpB1) Tb927.2.5980” value [5] was “did not elicit a significant PHT-39 sensitivity shift; also recorded: did not determine a significant sensitivity shift”, the “Sensitivity shift after RNAi of nicotinamidase paralogs Tb927.9.3970 and Tb927.9.4040” value [5] was “did not elicit a significant PHT-39 sensitivity shift; also recorded: did not determine a significant sensitivity shift” and the “EC50 shift after RNAi of miltefosine transporter Tb927.11.3350” value [5, 7] was “mild but significant EC50 increase”. The “Sensitivity shift after knockdown of ESAG5” value [5, 7] was “very modest but significant sensitivity shift” and the “Parasitemia and host survival, P. berghei ANKA infection model” value [6] was “considerable decrease in parasitemia and significantly extended host survival”.
With `C[C@@H]1[C@H](O)[C@@H](C)/C=C/C=C/C=C/C=C/C=C/C=C/C=C/[C@H](O[C@@H]2O[C@H](C)[C@@H](O)[C@H](N)[C@@H]2O)C[C@@H]2O[C@](O)(C[C@@H](O)C[C@@H](O)[C@H](O)CC[C@@H](O)C[C@@H](O)CC(=O)O[C@H]1C)C[C@H](O)[C@H]2C(=O)O` [AmB, amphotericin B, reference compound] the “Body weight during treatment course” value [1] was “significant differences with other groups”, the viability at 2.5 µM [4] was 2.71 ± 1.02% and the viability at 25 µM [4] was 0.33 ± 2.12%. The EC50 [4] was 300 nM.
